In PubChem BioAssay AID1615 (Sanford-Burnham Center for Chemical Genomics, 2009):
Converted amounts (≈) assume the structure as drawn.

Tested on: aqueous buffer solubility, UV absorbance, 18 h equilibrium
Assay: equilibrium solubility at several pH values – biophysical, UV absorbance, pH 5.0, 6.2, 7.4, ADME assay, late-stage follow-up (AID 1615)
Conditions: at 300 µM, stronger effect = higher value

solubility: 18 µg/mL (≈ 45.3 µM) | solubility (measured here: solubility at pH 5.0): 8.4 µg/mL (≈ 21.1 µM) | solubility (measured here: solubility at pH 6.2): 8.4 µg/mL (≈ 21.1 µM)
Compound: C=CCn1c(SCC(=O)c2ccc(O)c(O)c2)nnc1-c1ccccc1OC
